According to patent publication US10266482B2, “Long-term memory inducing agent” (NATIONAL UNIVERSITY CORPORATION TOKYO MEDICAL AND DENTAL …, priority 2017, dated 2019):

Key:
young mice [1] = test: Object recognition test (ORT) with young mice; assay type: in vivo, ICR mice
Procedure: 8-week-old male ICR mice were purchased. Each of the experiment individuals was raised in an individual cage, and adapted to the raising environment for at least a week before use. The rearing room was kept at 22° C. at cycles of 12 hours of light period/12 hours of dark period, and feed and drinking water were given freely. All of the experiments were conducted during the latter 6 hours of the light period.
N(1)-acetyl-5-methoxykynuramine (AMK) was used as a drug. AMK was diluted with physiological saline. In the administration experiment, a dosage of 0.001 mg-1 mg/3.65 ml/kg bw was intraperitoneally administered.
(§1) For an object recognition test, two each of two types of objects (height 6 cm×diameter 4 cm, height 7 cm×diameter 7 cm) and an observation box (height 30 cm×width 40 cm×depth 30 cm) were used. This test consisted of an acquisition trial and a test trial, and the experimental individuals were allowed to explore in the observation box 5 minutes a day for 3 days immediately before the experiment in order to adapt the experimental individuals to the observation box. In the acquisition trial, two identical objects were presented to the observation box and the experimental individuals were allowed to search for a minute. When the acquisition trials were conducted for more than one time, the acquisition trials were conducted at one-hour intervals. The test trial was conducted 24 hours, or 4 or 7 days after the last acquisition trial. In the test trials, one of the two identical objects presented in the acquisition trials was exchanged with a different object (new object), and the experimental individuals were allowed to search for 5 minutes. During the test trials, the time that took each of the mice to search for the object was measured, and the ratio of the searching time of the two objects (DI value:discrimination index) was calculated according to the following formula to examine the relative cognitive levels to the new object. DI value (%)=Tn×100/(Tf+Tn)
The object recognition test was a method of evaluating the learning/memory function that utilizes mice's novelty-seeking behavior.
One-sample t-test was employed to compare the DI value with the expected value (50%). In each experiment, when comparison among individual groups was required, an unpaired t-test was employed for comparing two groups while multiple comparisons including one-way analysis of variance followed by Bonferroni test was conducted for comparing three or more groups.

aged mice = test: Object recognition test (ORT) with aged mice; assay type: in vivo, ICR mice; conditions: for long-term memory formation (DI value, test trial 24 hours later): aged (14-month-old) mice
Procedure: 2-month-old male ICR mice (young mice) and 14-month-old male ICR mice (aged mice) were used. The rearing room was kept at 22° C. at cycles of 12 hours of light period/12 hours of dark period, and feed and drinking water were given freely. All of the experiments were conducted during the latter 6 hours of the light period.
N(1)-acetyl-5-methoxykynuramine (AMK) was used as a drug. AMK was diluted with physiological saline for the administration experiment with the aged mouse, and a dosage of 0.1 mg/kg bw or 1 mg/kg bw was intraperitoneally administered.
as §1, with “hours” for “hours,”, “4” for “4 or 7”, “value: discrimination” for “value:discrimination”
One-sample t-test was employed to compare the DI value with the expected value (50%).

young mice [2] = test: Object recognition test for young mice, AMK application to the scalp; assay type: in vivo, ICR mice; conditions: 1 μl of 0.4 mg/μl in dimethyl sulfoxide applied to scalp 30 minutes before one 3-minute acquisition trial
Procedure: (§2) Two-month-old male ICR mice (young mice) were used. The rearing room was kept at 22° C. at cycles of 12 hours of light period/12 hours of dark period, and feed and drinking water were given freely. All of the experiments were conducted during the latter 6 hours of the light period.
N(1)-acetyl-5-methoxykynuramine (AMK) was used as a drug. AMK was diluted with dimethyl sulfoxide to result a concentration of 0.4 mg/μl. One μl of the diluent was applied to each individual.
In order to examine the effect of AMK application to the skin, the scalps of the mice were depilated the day before the acquisition trial, AMK or dimethyl sulfoxide as a solvent was applied to 1 cm^2 of the scalp under inhalation anesthesia with isoflurane (Pfizer) 30 minutes before the acquisition trial, left for 5 minute to dry, and then the applied surface was protected with patchProtect (SmartPractice).
Test was conducted in the same manner as “5.3 Object recognition test” in Example 5 except that searching time was 3 minutes in the acquisition trial.
(§3) Processing was conducted in the same manner as “5.4 Statistical processing” in Example 5.

young mice [3] = test: Object recognition test for young mice (melatonin and melatonin metabolites); assay type: in vivo, ICR mice; conditions: i.p. 60 minutes after one one-minute acquisition trial, test trial 24 hours later
Procedure: as §2
Melatonin (MEL), N(1)-acetyl-N(2)-formyl-5-methoxykynuramine (AFMK), and N(1)-acetyl-5-methoxykynuramine (AMK) were used as drugs. Melatonin was purchased from SIGMA Aldrich, AFMK was purchased from Cayman Chemical, and AMK was purchased from Toronto Research Chemicals. AFMK and AMK were diluted with physiological saline and intraperitoneally administered at a dosage of 0.01 mg/kg bw, 0.1 mg/kg bw or 1.0 mg/kg bw. MEL was diluted with physiological saline containing 1 vol % ethanol, and intraperitoneally administered at a dosage of 1.0 mg/kg bw or 5.0 mg/kg bw. As controls, physiological saline or physiological saline containing 1 vol % ethanol was intraperitoneally administered.
Test was conducted in the same manner as “5.3 Object recognition test” in Example 5.
as §3

young crickets = test: Olfactory associative learning test in young crickets (single-time training, memory a day after); assay type: in vivo, Gryllus bimaculatus

SMILES: COc1ccc(N)c(C(=O)CCNC(C)=O)c1 [Compound 1, N-[3-(2-amino-5-methoxyphenyl)-3-oxopropyl]-acetamide]
- long-term memory formation (DI value, test trial 24 hours later) (young mice [1]; 0.001 mg/kg bw i.p. 15 minutes after single-time acquisition trial): a long-term memory was not formed
- long-term memory formation (DI value, test trial 24 hours later) (young mice [1]; 0.01 mg/kg bw i.p. 15 minutes after single-time acquisition trial): long-term memories were formed
- long-term memory formation (DI value, test trial 24 hours later) (young mice [1]; 0.1 mg/kg bw i.p. 15 minutes after single-time acquisition trial): long-term memories were formed
- long-term memory formation (DI value, test trial 24 hours later) (young mice [1]; 1 mg/kg bw i.p. 15 minutes after single-time acquisition trial): long-term memories were formed
- duration of induced long-term memory (young mice [1]; 1 mg/kg bw i.p. 15 minutes after single-time acquisition trial, test trials 1, 4 and 7 days later): at least 7 days
- long-term memory formation (DI value, test trial 24 hours later) (young mice [1]; 1 mg/kg bw i.p., administered from 60 minutes prior to 120 minutes following single-time acquisition trial): a long-term memory was formed
- time of administration after the acquisition trial at which long-term memory was still induced (young mice [1]; 1 mg/kg bw i.p., single-time acquisition trial): at least 120 minutes
- administration amount sufficient to form a long-term memory in terms of human (60 kg) (young mice [1]; converted from 0.01 mg/kg bw in mice): about 0.6 mg
- administration concentration sufficient to form a long-term memory (young mice [1]; i.p. 15 minutes after single-time acquisition trial): 0.01 mg/kg bw
- long-term memory formation (DI value, test trial 24 hours later) (aged mice; 0.1 mg/kg bw i.p. 15 minutes after two one-minute acquisition trials): a long-term memory was formed
- long-term memory formation (DI value, test trial 24 hours later) (aged mice; 1 mg/kg bw i.p. 15 minutes after one one-minute acquisition trial): a long-term memory was formed
- duration of induced long-term memory (aged mice; aged mice, 1 mg/kg bw i.p. 15 minutes after one acquisition trial, test trials 1 and 4 days later): at least 4 days
- long-term memory formation (DI value, test trial 24 hours later) (young mice [2]): a long-term memory was formed
- concentration at which the effect of inducing long-term memories was found (young mice [3]): 0.1 mg/kg bw
- amount in 1 g of the food per kg of body weight (young crickets; based on the results from ingesting 1 μM for 10 μl): ≥ 2.32 µg
- long-term memory formation a day after the training by oral administration (young crickets; drinking 10 μl of aqueous solution (5 μM) 5 minutes after single-time training): long-term memory was formed
